According to ChEMBL document CHEMBL6134819, “Discovery of novel tranylcypromine-indazole-based derivatives as LSD1 inhibitors for acute myeloid leukemia treatment” (Eur J Med Chem, 2025):
Active and inactive are the calls of the source. The rule behind the calls is not given here.

How the values were obtained:
[1] = tested on: HL-60; assay: Antiproliferative activity against human HL-60 cells assessed as inhibition of cell growth measured after 7 days by cell-titer glo assay; assay type: functional, cell-based; conditions: HL-60, 168 h
[2] = tested on: THP-1; assay: Antiproliferative activity against human THP-1 cells assessed as inhibition of cell growth measured after 7 days by cell-titer glo assay; assay type: functional, cell-based; conditions: THP-1, 168 h
[3] = target: T1, Amine oxidase [flavin-containing] B (Homo sapiens, UniProt P27338); assay: Inhibition of human N-terminal Flag-tagged MAOB extracted baculovirus infected in Sf9 cells measured after 0.5 hrs by MAO-Glo Assay; assay type: cell-based
T1 sequence (P27338 whole entry): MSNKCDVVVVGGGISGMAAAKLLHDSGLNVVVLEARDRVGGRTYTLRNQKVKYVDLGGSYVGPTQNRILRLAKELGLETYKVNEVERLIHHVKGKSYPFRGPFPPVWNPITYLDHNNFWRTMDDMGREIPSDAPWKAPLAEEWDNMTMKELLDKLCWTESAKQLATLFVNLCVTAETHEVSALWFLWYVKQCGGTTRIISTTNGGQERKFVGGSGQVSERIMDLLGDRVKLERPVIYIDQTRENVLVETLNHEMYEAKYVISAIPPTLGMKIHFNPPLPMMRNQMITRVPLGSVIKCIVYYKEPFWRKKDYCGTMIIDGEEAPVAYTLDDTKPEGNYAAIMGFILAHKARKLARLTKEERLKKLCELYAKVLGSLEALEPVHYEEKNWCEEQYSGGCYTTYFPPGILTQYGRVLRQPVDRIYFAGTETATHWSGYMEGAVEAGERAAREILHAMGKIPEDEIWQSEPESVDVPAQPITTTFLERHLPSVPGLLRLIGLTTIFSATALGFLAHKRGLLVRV

[4] = target: T2, Lysine-specific histone demethylase 1A (Homo sapiens, UniProt O60341); assay: Induction of thermal stabilization of LSD1 in human MV4-11 cells at 50 to 75 degree C by […] analysis; assay type: cell-based
[5] = Half life in male Sprague-Dawley rat at 10 mg/kg, po measured up to 24 hrs by LC-MS/MS analysis; assay type: ADME, organism-based; conditions: in vivo
[6] = target: T2, Lysine-specific histone demethylase 1A; assay: Inhibition of LSD1 in human MV4-11 cells assessed as increase in LSD1 protein level at 2 to 4 micromol/L measured after 48 hrs by Western blot analysis; assay type: cell-based; conditions: dose 2-4 µmol/L
[7] = target: T2, Lysine-specific histone demethylase 1A; assay: Inhibition of LSD1 in human MV4-11 cells assessed as increase in H3K4me1 expression level at 2 to 4 micromol/L measured after 48 hrs by Western blot analysis; assay type: cell-based; conditions: dose 2-4 µmol/L
[8] = target: T2, Lysine-specific histone demethylase 1A; assay: Inhibition of LSD1 in human MV4-11 cells assessed as increase in H3K4me2 expression level at 2 to 4 micromol/L measured after 48 hrs by Western blot analysis; assay type: cell-based; conditions: dose 2-4 µmol/L
[9] = tested on: MV4-11; assay: Induction of apoptosis in human MV4-11 cells measured after 48 hrs by Annexin V-FITC/PI double staining based flow cytometry analysis; assay type: functional, cell-based; conditions: dose 2-4 µmol/L
[10] = tested on: MV4-11; assay: Induction of apoptosis in human MV4-11 cells assessed as increase in early apoptosis measured after 48 hrs by Annexin V-FITC/PI double staining based flow cytometry analysis; assay type: functional, cell-based; conditions: dose 2-4 µmol/L
[11] = tested on: MV4-11; assay: Induction of apoptosis in human MV4-11 cells assessed as increase in late apoptosis measured after 48 hrs by Annexin V-FITC/PI double staining based flow cytometry analysis; assay type: functional, cell-based; conditions: dose 2-4 µmol/L
[12] = tested on: MV4-11; assay: Induction of apoptosis in human MV4-11 cells assessed as viable cells at 2 micromol/L measured after 48 hrs by Annexin V-FITC/PI double staining based flow cytometry analysis (reference value: 89.13%); assay type: functional; conditions: MV4-11, 48 h, dose 2 µmol/L, read-out: Activity
[13] = tested on: MV4-11; assay: Induction of apoptosis in human MV4-11 cells assessed as early apoptotic cells at 2 micromol/L measured after 48 hrs by Annexin V-FITC/PI double staining based flow cytometry analysis (reference value: 2.01 %); assay type: functional; conditions: dose 2 µmol/L, at 2 µM
[14] = tested on: MV4-11; assay: Induction of apoptosis in human MV4-11 cells assessed as early apoptotic cells at 3 micromol/L measured after 48 hrs by Annexin V-FITC/PI double staining based flow cytometry analysis (reference value: 2.01 %); assay type: functional; conditions: dose 3 µmol/L, at 3 µM
[15] = tested on: MV4-11; assay: Induction of apoptosis in human MV4-11 cells assessed as early apoptotic cells at 4 micromol/L measured after 48 hrs by Annexin V-FITC/PI double staining based flow cytometry analysis (reference value: 2.01 %); assay type: functional; conditions: dose 4 µmol/L, at 4 µM
[16] = tested on: MV4-11; assay: Induction of apoptosis in human MV4-11 cells assessed as late apoptotic cells at 2 micromol/L measured after 48 hrs by Annexin V-FITC/PI double staining based flow cytometry analysis (reference value: 7.70 %); assay type: functional; conditions: dose 2 µmol/L, at 2 µM
[17] = tested on: MV4-11; assay: Induction of apoptosis in human MV4-11 cells assessed as late apoptotic cells at 3 micromol/L measured after 48 hrs by Annexin V-FITC/PI double staining based flow cytometry analysis (reference value: 7.70 %); assay type: functional; conditions: dose 3 µmol/L, at 3 µM
[18] = tested on: MV4-11; assay: Induction of apoptosis in human MV4-11 cells assessed as late apoptotic cells at 4 micromol/L measured after 48 hrs by Annexin V-FITC/PI double staining based flow cytometry analysis (reference value: 7.70 %); assay type: functional; conditions: dose 4 µmol/L, at 4 µM
[19] = tested on: MV4-11; assay: Induction of apoptosis in human MV4-11 cells assessed as necrotic cells at 3 micromol/L measured after 48 hrs by Annexin V-FITC/PI double staining based flow cytometry analysis (reference value: 1.16 %); assay type: functional; conditions: dose 3 µmol/L, at 3 µM
[20] = tested on: MV4-11; assay: Induction of apoptosis in human MV4-11 cells assessed as necrotic cells at 4 micromol/L measured after 48 hrs by Annexin V-FITC/PI double staining based flow cytometry analysis (reference value: 1.16 %); assay type: functional; conditions: dose 4 µmol/L, at 4 µM
[21] = tested on: MV4-11; assay: Induction of apoptosis in human MV4-11 cells assessed as increase in cleaved caspase-3 level at 2 to 4 micromol/L measured after 72 hrs by Western blot analysis; assay type: functional, cell-based; conditions: dose 2-4 µmol/L
[22] = tested on: MV4-11; assay: Upregulation of CD86 expression in human MV4-11 cells incubated for 48 hrs by flow cytometry analysis; assay type: functional, cell-based; conditions: dose 2-4 µmol/L
[23] = Metabolic stability in mouse liver microsomes assessed as half life measured up to 60 mins in presence of NADPH by LC-MS/MS analysis; assay type: ADME, Microsome
[24] = Octanol-water partition coefficient, logP of the compound; assay type: physicochemical
[25] = Cmax in male Sprague-Dawley rat at 10 mg/kg, po measured up to 24 hrs by LC-MS/MS analysis; assay type: ADME, organism-based; conditions: in vivo
[26] = AUC (0 to infinity) in male Sprague-Dawley rat at 1 mg/kg, iv measured up to 24 hrs by LC-MS/MS analysis; assay type: ADME, organism-based; conditions: in vivo
[27] = AUC (0 to t) in male Sprague-Dawley rat at 1 mg/kg, iv measured up to 24 hrs by LC-MS/MS analysis; assay type: ADME, organism-based; conditions: in vivo
[28] = Half life in male Sprague-Dawley rat at 1 mg/kg, iv measured up to 24 hrs by LC-MS/MS analysis; assay type: ADME, organism-based; conditions: in vivo
[29] = Cmax in male Sprague-Dawley rat at 1 mg/kg, iv measured up to 24 hrs by LC-MS/MS analysis; assay type: ADME, organism-based; conditions: in vivo

IC50 [1]: 1.4 µM
IC50 [2]: 1.96 µM
IC50 [3]: 2.65 µM
Activity [4]: Active
half-life [5]: 86.4 min
inhibition [6]: Active
inhibition [7]: Active
inhibition [8]: Active
half-life [23]: 5.3 min
logP [24]: 4.2
Cmax [25]: 89.8 ng/mL
AUC(0-inf) [26]: 483 ng·h/mL
AUC(0-t) at 24 h [27]: 481 ng·h/mL
half-life [28]: 41.4 min
Cmax [29]: 869 ng/mL
SMILES: Cl.O=S(=O)(c1ccccc1)n1ncc2cc(-n3cc(CN[C@@H]4C[C@H]4c4ccc(F)c(F)c4)nn3)ccc21
Activity [9]: Dose-dependent-effect
Activity [10]: Dose-dependent-effect
Activity [11]: Dose-dependent-effect
viability at 2 µM [12]: 80.4%
Activity [13]: 2.52%
Activity [14]: 3.18%
Activity [15]: 4.28%
Activity [16]: 13.76%
Activity [17]: 13.22%
Activity [18]: 15.39%
Activity [19]: 2.8%
Activity [20]: 2.91%
Activity [21]: Active
Activity [22]: Dose-dependent-effect
